{"source": "patent US12433882B2", "about": "“Treatments for amyotrophic lateral sclerosis using dazucorilant” (Corcept Therapeutics Incorporated, priority 2022, dated 2025)", "tested_on": "effect of prednisone on eosinophils, lymphocytes, neutrophils, osteocalcin", "experiment": "First In Human study Part 3, proof of pharmacological effect (prednisone challenge)", "type": "in vivo", "excerpt": "Linear mixed model of PD parameter estimates from part 3 of the FIE study, including terms for treatment fitted as a fixed effect, subject fitted as a random effect, and baseline concentration values fitted as a covariate. AUEC, area under the effect curve; cfb, change from baseline; CI, confidence interval; Emax, maximum change; ns, not significant.", "data": [{"smiles": "C[C@]12C=CC(=O)C=C1CC[C@@H]1[C@@H]2C(=O)C[C@@]2(C)[C@H]1CC[C@]2(O)C(=O)CO", "note": "[Prednisone, prednisone]", "values": [{"measurement": "EOSINOPHILS AUEC(0-24) cfb (adjusted arithmetic mean)", "setting": "Prednisone (25 mg) alone", "result": "−2.80 109*h/L"}, {"measurement": "LYMPHOCYTES AUEC(0-24) cfb (adjusted arithmetic mean)", "setting": "Prednisone (25 mg) alone", "result": "−2.470 109*h/L"}, {"measurement": "NEUTROPHILS AUEC(0-24) cfb (adjusted arithmetic mean)", "setting": "Prednisone (25 mg) alone", "result": "74.7 109*h/L"}, {"measurement": "effect of a single dose on eosinophils, lymphocytes, osteocalcin and neutrophils", "setting": "single dose of prednisone", "result": "decreased eosinophils, lymphocytes, and osteocalcin, and increased neutrophils"}]}]}
